In patent publication US20260258029A1, “CHROMANE AMIDINE MONOBACTAM COMPOUNDS FOR THE TREATMENT OF BACTERIAL INFECTIONS” (priority 2022, published 2026):

How the values were obtained:
Type in all cases: cell-based
[1] = test system: Acinetobacter baumannii expressing TEM-1, AmpC, and Oxa-24/40 (CL6188); conditions: lowest concentration inhibiting 95% of bacterial growth; BLi relebactam 4 μg/mL; 35±2° C., 22 hours; OD600
Protocol: (§1) The concentrations of compounds required to inhibit the growth of various strains of bacteria were determined in an assay that assessed bacterial growth by measuring optical density at 600 nm (OD600). The bacterial strains tested included the clinical strains Escherichia coli expressing NDM-1 (CLB30016), Klebsiella pneumoniae expressing KPC-1 (CL6569), Acinetobacter baumannii expressing TEM-1, AmpC, and Oxa-24/40 (CL6188) and Pseudomonas aeruginosa expressing AmpC (CL5701). All compounds were tested in the presence of a R lactamase inhibitor (BLi, Relebactam) in 384-well microplates.
(§2) The clinical strains were stored as frozen single use stocks, thawed and diluted into 1.1× cation-adjusted Mueller-Hinton II broth to achieve approximately 2×10^5 CFU/mL. Test compounds were dissolved in DMSO and diluted 1:50 in the assay, resulting in a final concentration range of 100 μM to 0.098 μM. On the day of the assay, 1 μL of test compound was added to the plate followed by 4 μL of 50 μg/mL BLi in MOPS buffer and 45 μL of diluted bacteria. Plates were centrifuged at 1000 rpm for 30 seconds, shaken at approximately 800 rpm for 1 minute, and incubated at 35±2° C. for 22 hours. The concentration of BLi used in the assay was 4 μg/mL. At the end of the incubation, absorbance at 600 nm was determined using a spectrophotometer. Inhibition was quantitated by identifying the lowest concentration of test compound that was required to inhibit 95% of the growth of the bacteria. The results for Examples 1-39 are reported in Table I, expressed as the concentration of compound that inhibited 95% of bacterial growth (Minimum Inhibitory Threshold Concentration; MITC95).

[2] = test system: Pseudomonas aeruginosa expressing AmpC (CL5701); test: Growth inhibitory concentration (OD600), P. aeruginosa CL5701, with relebactam; conditions: lowest concentration inhibiting 95% of bacterial growth, BLi relebactam 4 μg/mL, 35±2° C., 22 hours
Protocol: as §1, §2

[3] = test system: Escherichia coli expressing NDM-1 (CLB30016); test: Growth inhibitory concentration (OD600), E. coli CLB30016, with relebactam; conditions: lowest concentration inhibiting 95% of bacterial growth, BLi relebactam 4 μg/mL, 35±2° C., 22 hours
Protocol: as §1, §2

Molecule | AB—CL6188 MITC95 [1] [µM] | PA—CL5701 MITC95 [2] [µM] | EC—CLB30016 MITC95 [3] [µM]
CC1(C)[C@H](NC(=O)/C(=N\O[C@](C)(C(=O)O)[C@H]2CCc3cc(C(=N)NC[C@H]4C[C@](N)(CO)C4)ccc3O2)c2csc(N)n2)C(=O)N1OS(=O)(=O)O [Compound 70, (S)-2-((R)-6-(N-(((1s,3S)-3-amino-3-(hydroxymethyl)cyclobutyl)methyl)-carbamimidoyl)-chroman-2-yl)-2-((((Z)-1-(2-aminothiazol-4-yl)-2-(((S)-2,2-dimethyl-4-oxo-1-(sulfooxy)-azetidin-3-yl)amino)-2-oxoethylidene)amino)oxy)propanoic acid] | 6.25 | 1.563 | 6.25
tert-butyl (S)-2-((((Z)-1-(2-((tert-butoxycarbonyl)amino)thiazol-4-yl)-2-(((S)-2,2-dimethyl-4-oxo-1-(sulfooxy)azetidin-3-yl)amino)-2-oxoethylidene)amino)oxy)-2-((R)-6-(N—(((S)-morpholin-2-yl)methyl)carbamimidoyl)chroman-2-yl)propanoate [Compound 32] | 12.5 | 3.125 | 6.25
CC1(C)[C@H](NC(=O)/C(=N\O[C@](C)(C(=O)O)[C@H]2CCc3cc(C(=N)NC[C@H]4C[C@@](N)(CO)C4)ccc3O2)c2csc(N)n2)C(=O)N1OS(=O)(=O)O [Compound 71, (S)-2-((R)-6-(N-(((1r,3R)-3-amino-3-(hydroxymethyl)cyclobutyl)methyl)-carbamimidoyl)-chroman-2-yl)-2-((((Z)-1-(2-aminothiazol-4-yl)-2-(((S)-2,2-dimethyl-4-oxo-1-(sulfooxy)-azetidin-3-yl)amino)-2-oxoethylidene)amino)oxy)propanoic acid] | 3.125 | 1.563 | 6.25
